Columns and labels:
[1] = system: 35S::GFP-PYR1*^-MANDI transgenic plants; assay: Thermography of leaf temperature after chemical treatment; format: in vivo, Arabidopsis thaliana; conditions: for leaf temperature: T1 plants, 24 hours after application, FIG. 10
Source text: To examine the effects of over-expressing either PYR1*^-MANDI or HAB1* in Arabidopsis thaliana, we made 35S-driven GFP-PYR1*^-MANDI and GFP-HAB1* constructs by cloning the mutant genes into the binary vector pEGAD, and the resultant plasmids were transformed into Agrobacterium tumefaciens. The floral dip method was used to generate T0 transgenic seed for both constructs and the T0 seed was germinated in soil containing glufosinate to select for transgenic T1 plants. The PYR1*^-MANDI T1 plants isolated were grown for ˜5 weeks and then treated with mandipropamid, using comparisons to wild type Columbia plants and a previously constructed 35S::PYR1^MANDI transgenic strain as controls. The treated plants were thermographed 24 hours after chemical applications to examine leaf temperature, which increases after ABA responses are activated, due to reduced transpiration. To examine different mandipropamid concentrations, the plants were first treated with 1 μM mandipropamid and then 3 days later were treated again with 10 μM mandipropamid.
Several T1 transgenic seed were propagated and 3 homozygous single insertion transgenic lines identified by glufosinate segregation patterns in the T3 seedlings. GFP-PYR1*^-MANDI protein levels were established by western blotting using an anti-GFP antibody, as described above and the three lines had similar levels of protein expression.

wild type PYR1 = biological target: T1, wild type PYR1 (Arabidopsis thaliana, UniProt O49686); assay: In vitro pull down assay with recombinant 6×-His receptor and GST-PP2C; format: binding; conditions: FIG. 8
T1 construct: made in house; host or cells: E. coli BL21 [DE3]pLysS
T1 sequence (O49686 1-191): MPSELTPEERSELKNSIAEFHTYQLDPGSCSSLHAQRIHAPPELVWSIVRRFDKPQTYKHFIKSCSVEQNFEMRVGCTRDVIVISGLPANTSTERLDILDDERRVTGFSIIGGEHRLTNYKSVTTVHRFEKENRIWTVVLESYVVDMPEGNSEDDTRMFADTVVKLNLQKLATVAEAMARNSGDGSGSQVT
Source text: To characterize the orthogonal orthogonal module biochemically, we produced recombinant forms of 6×-His-PYR1*^-MANDI, 6×-His-PYR1, GST-HAB1*, and GST-HAB1 in E. coli, as described above, and tested wild type and orthogonal receptors for their ability to inhibit GST-HAB1 activity in vitro, as well as their physical interactions with one another using pull-down assays. To characterize PYR1*^-MANDI and HAB1* in vitro, we cloned PYR1*^-MANDI into pET28 to generate a 6×-His tagged receptor and cloned HAB1* into pGEX-4T-1 to create a GST-fusion protein. Recombinant 6×-His-PYR1*^-MANDI and GST-HAB1* were prepared, as described above in example 1C, and used in experiments with previously prepared 6×-His-PYR1 and GST-HAB1. To conduct pull down assays, the specified recombinant receptor and PP2C (20 and 140 μg respectively), were combined in 500 μl PP2C assay buffer (100 mM Tris-HCl (pH 7.9), 100 mM NaCl, 1 mM MnCl2, 1% 13-ME and 0.3% BSA) containing either 10 μM ABA, 10 μM mandipropamid or 1% DMSO carrier solvent as a negative control. The final protein concentrations in the reactions are 1.6 μM receptor and 3.4 μM PP2C. The reactions were incubated for 90 minutes at room temperature (RT) and 20 μl of PrepEase (USB) His-tagged protein purification resin (20 mg) was added. The resin and reaction mixtures were incubated for 30 minutes at RT with gentle shaking at 5 minute intervals. The resin was washed five times and 100 μl of SDS-PAGE buffer was added and boiled for 5 minutes. After centrifugation 20 μl of supernatant was analyzed by SDS-PAGE.

Question: Which leaf temperature ([1]; 1 μM mandipropamid) does the source give for `C#CCOc1ccc(CCNC(=O)C(OCC#C)c2ccc(Cl)cc2)cc1OC` (centres unmarked) [mandipropamid] here?
Answer: The leaf temperature was “Neither of the treatments elicited substantial alterations in leaf temperature”.

Question: And the leaf temperature ([1]; 10 μM mandipropamid (3 days after 1 μM))?
Answer: Its leaf temperature is “Neither of the treatments elicited substantial alterations in leaf temperature”.

Question: What about the “leaf temperature in comparison to wild type control plants” value ([1]; two homozygous lines, 5 μM mandipropamid, FIG. 11) of the same molecule?
Answer: The value was “did not reveal differences in leaf temperature”.

B1: HAB1*: catalytically inactive orthogonal pentuple HAB1 mutant (protein, listed as Arabidopsis thaliana)
chain: MTPAVAMTLSLAANTMCESSPVEITQLKNVTDAADLLSDSENQSFCNGGTECTMEDVSELEEVGEQDLLKTLSDTRSGSSNVFDEDDVLSVVEDNSAVISEGLLVVDAGSELSLSNTAMEIDNGRVLATAIIVGESSIEQVPTAEVLIAGVNQDTNTSEVVIRLPDENSNHLVKGRSVYELDCIPLWGTVSIQGNASEMEAAFAVSPHFLKLPIKMLMGDHEGMSPSLTHLTGHFFGVYDGHGGHKVADYCRDRLHFALAEEIERIKDELCKRNTGEGRQVQWDKVFTSCFLTVDGEIEGKIGRAVVGSSDKVLEAVADETVGSTAVVALVCSSHIVVSNCGDSRAVLFRGKEAMPLSVDHKPDREDEYARIENAGGKVIQWQGARVFGRLAMSRSIGDRYLKPYVIPEPEVTFMPRSREDECLILASDGLWDVMNNQEVCEIARRRILMWHKKNGAPPLAERGKGIDPACQAAADYLSMLALQKGSKDNISIIVIDLKAQAKFKTRT
Question: Which “binding to wild type PYR1” value (wild type PYR1; 10 μM ABA) does the source give for B1 here?
Answer: Its value is “does not bind”.

Question: What about the “binding to wild type PYR1” value (wild type PYR1; 10 μM mandipropamid) of the same molecule?
Answer: The value was “does not bind”.

— patent US10919943B2, “Mutant proteins enabling agrochemical control of plant gene expression” (The Regents of the University of California, priority 2016, dated 2021)
